Results: ChEMBL document CHEMBL3880427, “P70 S6 kinase inhibitors” (2012)

What was measured:
Type in all cases: functional, HCT-116
[1] = Antitumor activity against human HCT116 cells xenografted in athymic nude mouse assessed as tumor volume at 30 mg/kg, po bid administered for 21 days measured on day 8 post last dose (reference value: 38.5 +/- 4.1 mm'3)
[2] = Antitumor activity against human HCT116 cells xenografted in athymic nude mouse assessed as tumor volume at 30 mg/kg, po bid administered for 21 days measured on day 13 post last dose (reference value: 100.9 +/- 13.7 mm'3)
[3] = Antitumor activity against human HCT116 cells xenografted in athymic nude mouse assessed as tumor volume at 30 mg/kg, po bid administered for 21 days measured on day 16 post last dose (reference value: 163.1 +/- 25.7 mm'3)
[4] = Antitumor activity against human HCT116 cells xenografted in athymic nude mouse assessed as tumor volume at 30 mg/kg, po bid administered for 21 days measured on day 20 post last dose (reference value: 287.1 +/- 31.9 mm'3)
[5] = Antitumor activity against human HCT116 cells xenografted in athymic nude mouse assessed as tumor volume at 30 mg/kg, po bid administered for 21 days measured on day 23 post last dose (reference value: 402.2 +/- 43.1 mm'3)
[6] = Antitumor activity against human HCT116 cells xenografted in athymic nude mouse assessed as tumor volume at 30 mg/kg, po bid administered for 21 days measured on day 27 post last dose (Rvb= 545 +/- 41.1 mm'3)
[7] = Antitumor activity against human HCT116 cells xenografted in athymic nude mouse assessed as tumor volume at 60 mg/kg, po bid administered for 21 days measured on day 8 post last dose (reference value: 38.5 +/- 4.1 mm'3)
[8] = Antitumor activity against human HCT116 cells xenografted in athymic nude mouse assessed as tumor volume at 60 mg/kg, po bid administered for 21 days measured on day 13 post last dose (reference value: 100.9 +/- 13.7 mm'3)
[9] = Antitumor activity against human HCT116 cells xenografted in athymic nude mouse assessed as tumor volume at 60 mg/kg, po bid administered for 21 days measured on day 16 post last dose (reference value: 163.1 +/- 25.7 mm'3)
[10] = Antitumor activity against human HCT116 cells xenografted in athymic nude mouse assessed as tumor volume at 60 mg/kg, po bid administered for 21 days measured on day 20 post last dose (reference value: 287.1 +/- 31.9 mm'3)
[11] = Antitumor activity against human HCT116 cells xenografted in athymic nude mouse assessed as tumor volume at 60 mg/kg, po bid administered for 21 days measured on day 23 post last dose (reference value: 402.2 +/- 43.1 mm'3)
[12] = Antitumor activity against human HCT116 cells xenografted in athymic nude mouse assessed as tumor volume at 60 mg/kg, po bid administered for 21 days measured on day 27 post last dose (Rvb= 545 +/- 41.1 mm'3)
[13] = Antitumor activity against human HCT116 cells xenografted in athymic nude mouse assessed as tumor volume at 60 mg/kg, po qd administered for 21 days measured on day 8 post last dose (reference value: 38.5 +/- 4.1 mm'3)
[14] = Antitumor activity against human HCT116 cells xenografted in athymic nude mouse assessed as tumor volume at 60 mg/kg, po qd administered for 21 days measured on day 13 post last dose (reference value: 100.9 +/- 13.7 mm'3)
[15] = Antitumor activity against human HCT116 cells xenografted in athymic nude mouse assessed as tumor volume at 60 mg/kg, po qd administered for 21 days measured on day 16 post last dose (reference value: 163.1 +/- 25.7 mm'3)
[16] = Antitumor activity against human HCT116 cells xenografted in athymic nude mouse assessed as tumor volume at 60 mg/kg, po qd administered for 21 days measured on day 20 post last dose (reference value: 287.1 +/- 31.9 mm'3)
[17] = Antitumor activity against human HCT116 cells xenografted in athymic nude mouse assessed as tumor volume at 60 mg/kg, po qd administered for 21 days measured on day 23 post last dose (reference value: 402.2 +/- 43.1 mm'3)
[18] = Antitumor activity against human HCT116 cells xenografted in athymic nude mouse assessed as tumor volume at 60 mg/kg, po qd administered for 21 days measured on day 27 post last dose (Rvb= 545 +/- 41.1 mm'3)

## Cl.FC(F)(F)c1cccc(-c2c[nH]c(C3CCN(c4ncnc5[nH]ncc45)CC3)n2)c1
[1]
  Activity: 36.5 mm3
[2]
  Activity: 58.7 mm3
[3]
  Activity: 90.9 mm3
[4]
  Activity: 134.6 mm3
[5]
  Activity: 192.7 mm3
[6]
  Activity: 296.3 mm3
[7]
  Activity: 28.8 mm3
[8]
  Activity: 42.1 mm3
[9]
  Activity: 72.1 mm3
[10]
  Activity: 139 mm3
[11]
  Activity: 188.4 mm3
[12]
  Activity: 280 mm3
[13]
  Activity: 30.6 mm3
[14]
  Activity: 57.8 mm3
[15]
  Activity: 85 mm3
[16]
  Activity: 142.5 mm3
[17]
  Activity: 194.5 mm3
[18]
  Activity: 252.7 mm3
